US20070161655A1, “Fungicidal mixtures” (BASF Aktiengesellschaft, priority 2004, published 2007)

Test system: Corticium sasakii
Assay: Activity against sheath blight on rice caused by Corticium sasakii (protective spray, rice plants cultivar Tai-Nong 67)
Format: in vivo
Settings: individual active compound, evaluated after 11 days, untreated control 85% infection
Procedure: The active compounds, separately or jointly, were prepared as a stock solution comprising 0.25% by weight of active compound in acetone or DMSO. 1% by weight of the emulsifier Uniperol® EL (wetting agent having emulsifying and dispersing action based on ethoxylated alkylphenols) was added to this solution, and the mixture was appropriately diluted with water to the desired concentration.
Pots of rice plants of the cultivar “Tai-Nong 67” were sprayed to runoff point with an aqueous suspension having the concentration of active compound stated below. The next day, oat grains infected with Corticium sasakii were planted in the pots (in each case 5 grains per pot). The plants were then placed in a chamber at 26° C. and maximum atmospheric humidity. After 11 days, the sheath blight on the untreated but infected control plants had developed to such an extent that the infection could be determined visually in %.
Evaluation is carried out by determining the infected leaf areas in percent. These percentages were converted into efficacies.
The efficacy (E) is calculated as follows using Abbot's formula: E=(1−α/β)·100 • α corresponds to the fungal infection of the treated plants in % and • β corresponds to the fungal infection of the untreated (control) plants in %
An efficacy of 0 means that the infection level of the treated plants corresponds to that of the untreated control plants; an efficacy of 100 means that the treated plants are not infected.
The expected efficacies of the mixtures of active compounds are determined using Colby's formula [R. S. Colby, Weeds, 15, 20-22 (1967)] and are compared with the observed efficacies.
Colby's formula: E=x+y−x·y/100 • expected efficacy, expressed in % of the untreated control, when using the mixture of the active compounds A and B at the concentrations a and b • x efficacy, expressed in % of the untreated control, when using the active compound A at the concentration a
y efficacy, expressed in % of the untreated control, when using the active compound B at the concentration b

Question: Which results are given for `CC1CCN(c2c(-c3c(F)cc(F)cc3F)c(Cl)nc3ncnn23)CC1` [I, 5-chloro-7-(4-methylpiperidin-1-yl)-6-(2,4,6-trifluorophenyl)-[1,2,4]triazolo[1,5-a]pyrimidine]?
Answer: Efficacy in % of the untreated control (4 ppm in the spray liquor): 30%; Efficacy in % of the untreated control (16 ppm in the spray liquor): 65%

Question: For `CN(C)S(=O)(=O)N(SC(F)(Cl)Cl)c1ccccc1` [II (dichlofluanid), N-dichlorofluoromethylthio-N′,N′-dimethyl-N-phenylsulfonamide], which “Efficacy in % of the untreated control” value (4 ppm in the spray liquor) is on record?
Answer: 0%

Question: And the “Efficacy in % of the untreated control” value (16 ppm in the spray liquor)?
Answer: 0%
